Assay results taken from patent US9113629B2, “4-amino-6-(4-substituted-phenyl)-picolinates and 6-amino-2-(4-substituted-phenyl)-pyrimidine-4-carboxylates and their use as herbicides” (DOW AGROSCIENCES LLC, priority 2013, dated 2015).
Where two headings read alike, the source gives them in different places.

Legend:
[1] = tested on: Key Grass and Sedge Weeds as well as Grass Crops; experiment: Post-emergent Test II herbicidal activity (Table 6); assay type: in vivo; conditions: post-emergence, 336 h; for pest or weed control at 70 g/ha: 70 g ai/ha; for pest or weed control at 140 g/ha: 140 g ai/ha
In short: (§1)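 Spray rates: a highest rate plus ½×, ¼×, ⅛×, 1/16×, all delivered at 187 L/ha to plants at the first–second true leaf stage. Readout is a visual percent injury score at 14 d, where 100 means complete kill.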

[2] = tested on: Key Broadleaf Weed and Crop Species; experiment: Post-emergent Test II herbicidal activity (Table 5); assay type: in vivo; conditions: post-emergence, 336 h, 14 days after application; for pest or weed control at 70 g/ha: application rate 70 g ai/ha; for pest or weed control at 140 g/ha: application rate 140 g ai/ha
In short: as §1

[3] = CYPES: yellow nutsedge (Cyperus esculentus), read-out: Visual Growth Reduction (%) 14 Days After Application, CYPES
[4] = DIGSA: crabgrass (Digitaria sanguinalis), read-out: Visual Growth Reduction (%) 14 Days After Application, DIGSA
[5] = ECHCG: barnyardgrass (Echinochloa crus-galli), read-out: Visual Growth Reduction (%) 14 Days After Application, ECHCG
[6] = ORYSA: rice (Oryza sativa), crop, read-out: Visual Growth Reduction (%) 14 Days After Application, ORYSA
[7] = SETFA: giant foxtail (Setaria faberi), read-out: Visual Growth Reduction (%) 14 Days After Application, SETFA
[8] = SORVU: grain sorghum (Sorghum vulgare), read-out: Visual Growth Reduction (%) 14 Days After Application, SORVU
[9] = TRZSS (wheat, Triticum aestivum), crop, read-out: Visual Growth Reduction (%) 14 Days After Application, TRZSS
[10] = ZEAMX: maize, corn (Zea mays), crop, read-out: Visual Growth Reduction (%) 14 Days After Application, ZEAMX
[11] = ABUTH: velvetleaf (Abutilon theophrasti), read-out: Visual Growth Reduction (%) 14 Days After Application, ABUTH
[12] = AMARE: redroot pigweed (Amaranthus retroflexus), read-out: Visual Growth Reduction (%) 14 Days After Application, AMARE
[13] = BRSNN: oilseed-rape, canola (Brassica napus), read-out: Visual Growth Reduction (%) 14 Days After Application, BRSNN
[14] = CHEAL: lambsquarters (Chenopodium album), read-out: Visual Growth Reduction (%) 14 Days After Application, CHEAL
[15] = EPHHL: wild poinsettia (Euphorbia heterophylla), read-out: Visual Growth Reduction (%) 14 Days After Application, EPHHL
[16] = HELAN: sunflower (Helianthus annuus), read-out: Visual Growth Reduction (%) 14 Days After Application, HELAN
[17] = VIOTR: wild pansy (Viola tricolor), read-out: Visual Growth Reduction (%) 14 Days After Application, VIOTR

Structure (SMILES): COC(=O)c1nc(-c2ccccc2)c(F)c(N)c1Cl [Compound 181]
- pest or weed control at 70 g/ha [1, 3]: 95 to 100%
- pest or weed control at 140 g/ha [1, 3]: 95 to 100%
- pest or weed control at 70 g/ha [1, 4]: 0 to 29%
- pest or weed control at 140 g/ha [1, 4]: 0 to 29%
- pest or weed control at 70 g/ha [1, 5]: 0 to 29%
- pest or weed control at 140 g/ha [1, 5]: 0 to 29%
- pest or weed control at 70 g/ha [1, 6]: 0 to 29%
- pest or weed control at 140 g/ha [1, 6]: 0 to 29%
- pest or weed control at 70 g/ha [1, 7]: 0 to 29%
- pest or weed control at 140 g/ha [1, 7]: 0 to 29%
- pest or weed control at 70 g/ha [1, 8]: 0 to 29%
- pest or weed control at 140 g/ha [1, 8]: 30 to 44%
- pest or weed control at 70 g/ha [1, 9]: 0 to 29%
- pest or weed control at 140 g/ha [1, 9]: 0 to 29%
- pest or weed control at 70 g/ha [1, 10]: 0 to 29%
- pest or weed control at 140 g/ha [1, 10]: 30 to 44%
- pest or weed control at 70 g/ha [2, 11]: 95 to 100%
- pest or weed control at 140 g/ha [2, 11]: 95 to 100%
- pest or weed control at 70 g/ha [2, 12]: 85 to 94%
- pest or weed control at 140 g/ha [2, 12]: 95 to 100%
- pest or weed control at 70 g/ha [2, 13]: 85 to 94%
- pest or weed control at 140 g/ha [2, 13]: 95 to 100%
- pest or weed control at 70 g/ha [2, 14]: 95 to 100%
- pest or weed control at 140 g/ha [2, 14]: 95 to 100%
- pest or weed control at 70 g/ha [2, 15]: 85 to 94%
- pest or weed control at 140 g/ha [2, 15]: 95 to 100%
- pest or weed control at 70 g/ha [2, 16]: 95 to 100%
- pest or weed control at 140 g/ha [2, 16]: 95 to 100%
- pest or weed control at 70 g/ha [2, 17]: 0 to 29%
- pest or weed control at 140 g/ha [2, 17]: 0 to 29%
